From US8987217B2, “Modified saponins for the treatment of fungal infections” (The General Hospital Corporation, priority 2010, dated 2015)
Values after ≈ are worked out from the molar mass of the structure shown.

Experiments:
[1] = system: C. albicans biofilm; experiment: biofilm formation on silicone pads (dry mass); format: cell-based; conditions: 10 μg/mL (below the MIC), compared with caspofungin
Protocol: The minimal inhibitory concentration (MIC) was determined for strains DAY185, 98-145, 95-120 (White et al., Antimicrob Agents Chemother, 46:1704-1713 (2002)), and A15-10 (Garcia-Effron et al., Antimicrob Agents Chemother, 53:112-122 (2009)) spectrophotometrically using RPMI 1640 media (Mediatech, Inc.) following the standard CLSI microdilution protocol M27-A (National Committee for Clinical Laboratory Standards, Reference method for broth dilution susceptibility testing of yeasts. Tentative standard M27-A, Villanova, Pa. (1995)). Biofilm assays using identified compounds were conducted as previously described (Richard et al., Eukaryot Cell, 4:1493-1502 (2005)). The biofilm dry mass was determined by drying the silicone squares in a chemical hood, and weighing the resulting biofilm mass subtracting the previously weighed mass of the silicone square. […]
Caspofungin (Merck) served as a known antifungal compound control. In vitro hyphal inhibition was assessed by incubation of DAY185 in RPMI 1640 media at 37° C. […] The ability of the antifungal compound A16, at either 2 or 4 μg/mL, to induce osmotic stress was assessed using DAY185 grown in a 96 well microtiter plate containing RPMI 1640 media and NaCl, ranging in concentrations from 0-2 M in 0.25 M increments. The growth of the fungus was measured spectrophotometrically after 48 hours of growth at 35° C.

[2] = system: C. elegans; experiment: toxicity to the nematode in dose response experiments; conditions: dose response experiments, higher concentrations
Description: This assay allows simultaneous assessment of a compound's potential toxicity and the ability to promote the survival of the nematode in the presence of C. albicans, including modes of action not traditionally considered in antifungal assays such as impeding a fungal virulence factor or promoting host immune response. We performed a screen of 2,560 natural products representing a fraction of the Analyiticon Discovery compound collection (ac-discovery.com) housed at the Broad Institute of Harvard and MIT (Cambridge, Mass.). […] These natural products identified in the primary screen were retested and confirmed (FIG. 1; Table 1). […] Moreover, although the antifungal effects of some of these saponins have been reported (Sata et al., Biosci Biotechnol Biochem, 62:1904-1911 (1998); Ohtani et al., Phytochem, 33:83-86 (1993)), their efficacy against Candida spp. has not been studied.
Representatives of the saponins family are able to disrupt cellular membranes and the lytic activity on erythrocytes has been used as an assay for some saponins Francis et al., British Journal of Nutrition, 88:587-605 (2002)). This property is derived from the affinity of some saponins for binding cholesterol forming insoluble pores composed of the sterol and saponins (Bangham et al., Nature, 196:952-953(1962); Glauert et al., Nature, 196:953-955 (1962)). […] The dose-response experiments previously used to determine the EC50 and approximate the MIC can also indicate if the saponins maybe toxic to C. elegans and potentially to mammalian cells.

[3] = system: C. albicans strain DAY185; experiment: in vitro antifungal activity (MIC) in the co-inoculation assay, turbidity read visually; format: cell-based; conditions: co-inoculation assay, two-fold serial dilutions, C. albicans DAY185
Protocol: The procedure for the co-inoculation antifungal compound screen were conducted as previously described (Okoli et al., PLoS ONE, 4:e7025 (2009); Tampakakis et al., Nat Protocols, 3:1925-1931 (2008)), using the C. albicans strain DAY185 (Davis et al., Infect Immun, 68:5953-5959 (2000)) and the C. elegans glp-4;sek-1 double mutant.
The determination of the lowest concentration of the selected compounds showing in vitro antifungal activity was accomplished by following the steps detailed in the co-inoculation assay, using two-fold serial dilutions of the test compounds.

With `CC1CC[C@@]2(OC1)O[C@H]1CC3C4C[C@@H](O)C5C[C@@H](O[C@@H]6O[C@H](CO)[C@H](O[C@@H]7O[C@H](CO)[C@@H](O)[C@H](O[C@@H]8OC[C@@H](O)[C@H](O)[C@H]8O)[C@H]7O[C@@H]7O[C@H](CO)[C@@H](O)[C@H](O)[C@H]7O)[C@H](O)[C@H]6O)[C@H](O)C[C@]5(C)C4CC[C@]3(C)[C@H]1[C@@H]2C` (stereo partly drawn) [A16, Aginoside] the biofilm formation [1] was “able to inhibit biofilm formation”, the “toxicity to the nematode” value [2] was “none of the concentrations used in the dose response experiment showed signs of toxicity” and the MIC in vitro [3] was 47.0 µg/mL (≈ 44 µM).
